Measurements: US10870647B2, “Imidazopyridine derivative, method for preparing same, and pharmaceutical composition containing same as active ingredient for preventing or treating cancer” (DAEGU-GYEONGBUK MEDICAL INNOVATION FOUNDATION, priority 2016, dated 2020)

Columns and labels:
Assay in all cases: Kinase selectivity, scanMAX Kinase assay panel (DiscoverX), % control at 1 uM
Format in all cases: binding
[1] = target: T1, scanMAX Kinase assay panel (Homo sapiens, UniProt P37023); conditions: ACVRL1; 1 uM; read-out: Percent Control (%)
T1 construct: purchased DiscoverX
T1 sequence (P37023 22-503): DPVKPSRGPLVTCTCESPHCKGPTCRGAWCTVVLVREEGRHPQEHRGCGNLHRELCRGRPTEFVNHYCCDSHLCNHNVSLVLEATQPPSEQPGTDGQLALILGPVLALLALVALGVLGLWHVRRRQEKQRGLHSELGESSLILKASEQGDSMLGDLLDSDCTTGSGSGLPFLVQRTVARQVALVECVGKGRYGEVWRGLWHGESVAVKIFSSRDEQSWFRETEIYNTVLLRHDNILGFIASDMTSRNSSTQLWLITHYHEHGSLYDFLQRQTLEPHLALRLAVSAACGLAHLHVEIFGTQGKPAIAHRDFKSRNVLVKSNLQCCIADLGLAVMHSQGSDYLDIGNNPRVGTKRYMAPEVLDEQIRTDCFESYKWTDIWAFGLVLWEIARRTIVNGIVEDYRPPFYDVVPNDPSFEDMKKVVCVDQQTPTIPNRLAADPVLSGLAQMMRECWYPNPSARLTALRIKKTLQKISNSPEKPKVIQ
How it was run: (§1)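 A single concentration of 1 uM, in DMSO, is applied across the kinase panel. Activity against an individual enzyme is assigned where % control is less than 35.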

[2] = target: T2, scanMAX Kinase assay panel (Homo sapiens, UniProt Q13237); conditions: PRKG2; 1 uM; read-out: Percent Control (%)
T2 construct: purchased DiscoverX
T2 sequence (Q13237 1-762): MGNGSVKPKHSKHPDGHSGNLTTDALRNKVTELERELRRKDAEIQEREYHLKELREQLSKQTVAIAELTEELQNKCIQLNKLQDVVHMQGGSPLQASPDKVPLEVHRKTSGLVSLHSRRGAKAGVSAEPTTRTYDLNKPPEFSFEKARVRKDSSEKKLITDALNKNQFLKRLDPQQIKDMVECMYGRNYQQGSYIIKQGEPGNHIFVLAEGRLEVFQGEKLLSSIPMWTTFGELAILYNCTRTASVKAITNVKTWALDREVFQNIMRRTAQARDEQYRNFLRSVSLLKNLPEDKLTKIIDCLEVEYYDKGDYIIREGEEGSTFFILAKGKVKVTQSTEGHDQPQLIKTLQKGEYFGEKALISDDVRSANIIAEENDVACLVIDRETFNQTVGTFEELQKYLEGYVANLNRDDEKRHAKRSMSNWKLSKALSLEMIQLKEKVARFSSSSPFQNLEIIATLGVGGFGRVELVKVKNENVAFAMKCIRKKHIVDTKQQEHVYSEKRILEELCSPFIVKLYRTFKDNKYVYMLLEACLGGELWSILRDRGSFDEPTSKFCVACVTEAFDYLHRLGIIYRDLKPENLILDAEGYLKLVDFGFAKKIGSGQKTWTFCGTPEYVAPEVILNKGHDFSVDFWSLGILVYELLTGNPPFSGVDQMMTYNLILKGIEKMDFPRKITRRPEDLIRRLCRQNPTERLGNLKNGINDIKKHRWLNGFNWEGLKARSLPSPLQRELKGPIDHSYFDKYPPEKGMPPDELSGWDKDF
How it was run: as §1

[3] = target: T3, scanMAX Kinase assay panel (Homo sapiens, UniProt P00533, DEL746-750); conditions: EGFR (E746-A750del); 1 uM; read-out: Percent Control (%)
T3 construct: purchased DiscoverX
T3 sequence (P00533 with tags, fused parts or gaps DEL746-750): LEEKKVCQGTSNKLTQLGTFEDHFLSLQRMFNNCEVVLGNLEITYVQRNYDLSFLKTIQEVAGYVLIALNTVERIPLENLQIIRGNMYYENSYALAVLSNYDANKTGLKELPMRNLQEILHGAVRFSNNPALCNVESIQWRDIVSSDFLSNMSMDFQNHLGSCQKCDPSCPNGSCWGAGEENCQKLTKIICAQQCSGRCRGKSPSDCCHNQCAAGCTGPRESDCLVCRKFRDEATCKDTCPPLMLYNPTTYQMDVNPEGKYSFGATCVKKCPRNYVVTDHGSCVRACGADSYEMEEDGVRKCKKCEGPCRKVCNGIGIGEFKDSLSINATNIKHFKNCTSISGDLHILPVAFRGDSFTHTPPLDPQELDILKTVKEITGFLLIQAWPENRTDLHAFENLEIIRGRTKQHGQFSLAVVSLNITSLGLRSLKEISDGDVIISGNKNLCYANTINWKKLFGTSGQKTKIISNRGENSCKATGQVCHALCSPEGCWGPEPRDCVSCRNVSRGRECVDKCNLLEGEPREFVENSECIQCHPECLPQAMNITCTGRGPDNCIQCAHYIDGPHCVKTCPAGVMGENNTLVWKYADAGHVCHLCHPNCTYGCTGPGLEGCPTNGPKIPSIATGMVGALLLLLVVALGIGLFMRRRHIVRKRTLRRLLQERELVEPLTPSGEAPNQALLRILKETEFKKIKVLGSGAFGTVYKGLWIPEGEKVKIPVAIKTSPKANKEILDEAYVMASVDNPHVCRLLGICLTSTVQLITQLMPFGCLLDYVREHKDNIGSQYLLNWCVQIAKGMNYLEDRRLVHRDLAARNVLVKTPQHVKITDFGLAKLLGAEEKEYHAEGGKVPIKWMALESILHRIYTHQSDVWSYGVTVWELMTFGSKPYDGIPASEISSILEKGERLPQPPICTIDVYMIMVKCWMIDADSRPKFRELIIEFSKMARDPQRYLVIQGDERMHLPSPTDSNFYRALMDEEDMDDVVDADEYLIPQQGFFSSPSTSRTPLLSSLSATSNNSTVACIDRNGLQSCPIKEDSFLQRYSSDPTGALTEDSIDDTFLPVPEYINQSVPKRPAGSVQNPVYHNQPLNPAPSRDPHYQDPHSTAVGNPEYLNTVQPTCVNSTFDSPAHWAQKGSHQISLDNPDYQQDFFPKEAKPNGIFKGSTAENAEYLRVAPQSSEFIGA
How it was run: as §1

[4] = target: T4, scanMAX Kinase assay panel (Homo sapiens, UniProt Q13043); conditions: MST1; 1 uM; read-out: Percent Control (%)
T4 construct: purchased DiscoverX
T4 sequence (Q13043 1-487): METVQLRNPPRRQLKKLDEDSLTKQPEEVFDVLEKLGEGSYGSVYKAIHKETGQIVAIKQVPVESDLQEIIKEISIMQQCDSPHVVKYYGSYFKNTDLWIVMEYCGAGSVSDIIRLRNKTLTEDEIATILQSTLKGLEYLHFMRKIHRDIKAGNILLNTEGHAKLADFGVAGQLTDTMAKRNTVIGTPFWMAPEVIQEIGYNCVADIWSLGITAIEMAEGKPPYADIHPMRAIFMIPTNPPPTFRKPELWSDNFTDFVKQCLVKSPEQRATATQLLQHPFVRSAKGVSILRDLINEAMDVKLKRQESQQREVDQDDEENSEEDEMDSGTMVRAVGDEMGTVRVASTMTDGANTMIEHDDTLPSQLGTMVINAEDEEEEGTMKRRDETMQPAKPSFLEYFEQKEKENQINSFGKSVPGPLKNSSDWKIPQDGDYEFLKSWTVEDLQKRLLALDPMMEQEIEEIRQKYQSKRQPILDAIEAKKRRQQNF
How it was run: as §1

[5] = target: T5, scanMAX Kinase assay panel (Homo sapiens, UniProt Q16620); conditions: TRKB; 1 uM; read-out: Percent Control (%)
T5 construct: purchased DiscoverX
T5 sequence (Q16620 32-822): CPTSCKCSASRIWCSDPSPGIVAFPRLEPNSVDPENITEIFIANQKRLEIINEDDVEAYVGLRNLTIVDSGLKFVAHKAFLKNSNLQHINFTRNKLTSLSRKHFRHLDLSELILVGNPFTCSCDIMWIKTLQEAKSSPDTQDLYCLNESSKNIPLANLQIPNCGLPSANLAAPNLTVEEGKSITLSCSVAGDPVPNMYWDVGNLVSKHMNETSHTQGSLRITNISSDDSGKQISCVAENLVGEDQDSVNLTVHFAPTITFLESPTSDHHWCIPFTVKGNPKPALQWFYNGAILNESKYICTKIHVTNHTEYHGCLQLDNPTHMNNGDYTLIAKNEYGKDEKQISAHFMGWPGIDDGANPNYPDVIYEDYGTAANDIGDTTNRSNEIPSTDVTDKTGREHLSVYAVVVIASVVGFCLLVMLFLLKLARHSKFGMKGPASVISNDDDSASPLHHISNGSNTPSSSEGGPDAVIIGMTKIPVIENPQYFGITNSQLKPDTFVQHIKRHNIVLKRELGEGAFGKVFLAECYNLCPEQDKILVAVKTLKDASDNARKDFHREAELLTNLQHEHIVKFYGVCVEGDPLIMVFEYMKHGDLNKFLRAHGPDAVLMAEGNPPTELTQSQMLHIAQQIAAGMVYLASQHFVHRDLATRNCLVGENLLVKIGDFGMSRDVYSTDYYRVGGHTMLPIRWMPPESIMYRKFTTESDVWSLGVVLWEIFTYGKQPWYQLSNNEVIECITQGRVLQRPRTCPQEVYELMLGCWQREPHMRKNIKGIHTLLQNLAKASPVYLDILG
How it was run: as §1

[6] = target: T6, scanMAX Kinase assay panel (Homo sapiens, UniProt P36897); conditions: TGFBR1; 1 uM; read-out: Percent Control (%)
T6 construct: purchased DiscoverX
T6 sequence (P36897 34-503): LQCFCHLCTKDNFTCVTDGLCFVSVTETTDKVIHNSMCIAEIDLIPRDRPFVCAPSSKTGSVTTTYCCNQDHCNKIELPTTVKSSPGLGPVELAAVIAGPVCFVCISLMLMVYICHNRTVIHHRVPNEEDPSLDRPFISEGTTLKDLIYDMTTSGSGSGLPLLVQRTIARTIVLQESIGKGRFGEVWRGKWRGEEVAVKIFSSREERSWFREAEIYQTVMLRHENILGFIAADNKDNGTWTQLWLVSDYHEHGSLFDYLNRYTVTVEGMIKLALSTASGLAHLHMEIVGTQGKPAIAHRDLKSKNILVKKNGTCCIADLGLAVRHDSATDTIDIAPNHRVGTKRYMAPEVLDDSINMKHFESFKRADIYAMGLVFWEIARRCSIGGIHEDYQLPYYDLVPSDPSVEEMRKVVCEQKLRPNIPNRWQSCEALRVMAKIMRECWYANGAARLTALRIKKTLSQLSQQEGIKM
How it was run: as §1

Row | SMILES | remaining binding at 1 µM [1] | remaining binding at 1 µM [2] | remaining binding at 1 µM [3] | remaining binding at 1 µM [4] | remaining binding at 1 µM [5] | remaining binding at 1 µM [6]
1 | Cc1ccc(NC(=O)C2(C(=O)Nc3ccc(F)cc3)CC2)cc1C#Cc1cnc2c(Nc3cnn(C(C)C)c3)cccn12 [Example 78] | 100% | 100% | 93% | 100% | 89% | 100%
2 | Cc1cn(-c2cc(NC(=O)c3ccc(C)c(C#Cc4cnc5c(Nc6cnn(C)c6)cccn45)c3)cc(C(F)(F)F)c2)cn1 [Example 12, 4-methyl-N-(3-(4-methyl-1H-imidazol-1-yl)-5-(trifluoromethyl)phenyl)-3-((8-((1-methyl-1H-pyrazol-4-yl)amino)imidazo[1,2-a]pyridin-3-yl)ethynyl)benzamide] | 99% | 90% | 8% | 84% | 16% | 85%
3 | Cc1ccc(C(=O)Nc2ccc(CN3CCN(C)CC3)c(C(F)(F)F)c2)cc1C#Cc1cnc2c(Nc3cnn(C)c3)cccn12 [Example 1, 4-methyl-3-((8-((1-methyl-1H-pyrazol-4-yl)amino)imidazo[1,2-a]pyridin-3-yl)ethynyl)-N-(4-((4-methylpiperazin-1-yl)methyl)-3-(trifluoromethyl)phenyl)benzamide] | 99% | 75% | 0% | 27% | 0% | 85%
